Laboratory results: publication PMC8518382, “Identification of a Bromodomain‐like Region in 15‐Lipoxygenase‐1 Explains Its Nuclear Localization” (Angewandte Chemie (International Ed. in English), 2021)

How the values were obtained:
5-LOX = target: T1, 5-LOX (Homo sapiens, UniProt P09917); assay: Sandwich ELISA of Labelox B biotinylation in A549 cell lysate, 5-LOX capture; format: biochemical; details: HRP-streptavidin detection, read-out: EC50 of labeling
T1 construct: the endogenous LOXs were captured on an anti‐LOX antibody precoated 96‐well plate; endogenous in cells; host or cells: A549 cell lysate
T1 sequence (P09917 1-674): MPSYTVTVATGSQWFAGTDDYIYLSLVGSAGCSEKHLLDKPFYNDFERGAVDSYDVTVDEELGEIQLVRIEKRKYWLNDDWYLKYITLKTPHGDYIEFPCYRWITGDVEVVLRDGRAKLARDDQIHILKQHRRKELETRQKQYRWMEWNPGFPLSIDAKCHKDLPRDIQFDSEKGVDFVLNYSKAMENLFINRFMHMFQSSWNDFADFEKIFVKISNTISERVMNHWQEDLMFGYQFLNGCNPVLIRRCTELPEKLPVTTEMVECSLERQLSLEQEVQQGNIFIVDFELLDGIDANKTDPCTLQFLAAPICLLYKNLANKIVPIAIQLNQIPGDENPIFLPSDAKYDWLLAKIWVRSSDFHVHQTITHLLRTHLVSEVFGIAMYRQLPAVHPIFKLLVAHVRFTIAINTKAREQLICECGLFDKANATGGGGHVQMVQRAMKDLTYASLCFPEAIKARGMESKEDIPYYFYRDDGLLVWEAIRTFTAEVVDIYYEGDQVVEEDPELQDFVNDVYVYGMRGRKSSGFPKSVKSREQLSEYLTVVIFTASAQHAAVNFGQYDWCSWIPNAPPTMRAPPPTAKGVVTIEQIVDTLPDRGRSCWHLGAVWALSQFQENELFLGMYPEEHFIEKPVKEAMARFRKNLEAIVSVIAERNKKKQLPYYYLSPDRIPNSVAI
Experimental: (§1) Labelox B efficiently labels endogenous LOXs. Lipoxygenase labeling by Labelox B was investigated using cell‐based assays. As a first step, labeling efficiency was estimated in intact RAW 264.7 macrophage cells that were treated with Labelox B in concentrations ranging between 1 μM and 100 μM with incubation times between 0.5 h and 6 h. […] As a next step, a sandwich ELISA assay was established in order to find proof that probe Labelox B is indeed labeling proteins with lipoxygenase enzyme activity. Towards this aim, A549 cell lysates were treated with sub‐micromolar to micromolar concentrations of Labelox B. Subsequently, the endogenous LOXs were captured on an anti‐LOX antibody precoated 96‐well plate followed by detection of Labelox B mediated biotinylation using HRP‐conjugated streptavidin. […] Furthermore, probe Labelox B enabled visualization of localized LOX activity in living cells (Figure 2 c). […] The fluorescence intensity increased with increasing doses of Labelox B and labeling was observed throughout the cells in the cytoplasm and the nucleus of A549.
(§2) Figure 2 Labelox B labels endogenous LOXs in a dose‐ and time‐dependent manner. a, b) Western blot analysis of Labelox B labeled LOXs in intact RAW 264.7 for indicated doses and time points. […] The pictures were captured by a Leica DM4000b fluorescence microscope.

12-LOX = target: T2, 12-LOX (Homo sapiens, UniProt P18054); assay: Sandwich ELISA of Labelox B biotinylation in A549 cell lysate, 12-LOX capture; format: biochemical; details: HRP-streptavidin detection, read-out: EC50 of labeling
T2 construct: the endogenous LOXs were captured on an anti‐LOX antibody precoated 96‐well plate; endogenous in cells; host or cells: A549 cell lysate
T2 sequence (P18054 1-663): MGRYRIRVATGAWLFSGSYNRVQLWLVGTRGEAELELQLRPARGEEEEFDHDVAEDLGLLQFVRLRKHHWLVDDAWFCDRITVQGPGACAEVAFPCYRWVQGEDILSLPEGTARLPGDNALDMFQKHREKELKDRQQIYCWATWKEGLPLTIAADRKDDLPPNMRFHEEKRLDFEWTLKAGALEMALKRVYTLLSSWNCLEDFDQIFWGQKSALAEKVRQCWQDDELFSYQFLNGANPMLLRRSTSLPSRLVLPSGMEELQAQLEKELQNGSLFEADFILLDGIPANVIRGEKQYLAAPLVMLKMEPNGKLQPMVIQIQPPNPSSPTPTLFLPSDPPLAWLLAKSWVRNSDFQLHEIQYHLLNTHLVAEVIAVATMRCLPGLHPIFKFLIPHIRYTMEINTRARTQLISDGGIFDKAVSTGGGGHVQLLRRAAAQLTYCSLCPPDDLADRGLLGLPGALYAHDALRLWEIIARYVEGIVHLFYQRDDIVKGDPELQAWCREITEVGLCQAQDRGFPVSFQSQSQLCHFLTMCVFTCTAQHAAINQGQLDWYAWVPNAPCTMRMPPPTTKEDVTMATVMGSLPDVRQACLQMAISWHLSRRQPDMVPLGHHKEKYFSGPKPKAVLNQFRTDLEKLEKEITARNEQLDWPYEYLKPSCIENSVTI
Experimental: as §1, §2

EC50 (5-LOX): ~3.5 µM | EC50 (12-LOX): ~3.5 µM
SMILES: CCCCCC#CCC#CCOC(=O)CCCC[C@@H]1SC[C@@H]2NC(=O)N[C@@H]21 [Labelox B (3)]
